Assay results published in ChEMBL document CHEMBL1909294, “Translating clinical findings into knowledge in drug safety evaluation--drug induced liver injury prediction system (DILIps)” (PLoS Comput Biol, 2011).

Tests used:
Hepatotoxicity [1] = system: Hepatotoxicity;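 as to HepSE bilirubinemia: bilirubinemia hepatic side effect score drawn from the DILIps training data, a prediction system for drug-induced liver injury; call rule not given here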;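 as to HepSE cholecystitis: Cholecystitis-related hepatic side effect score drawn from the DILIps (drug-induced liver injury prediction) training data set; call rule not given here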;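 as to HepSE cholelithiasis: hepatic side effect score for cholelithiasis, drawn from the DILIps training data for predicting drug-induced liver injury; call rule not given here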;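 as to HepSE cirrhosis: cirrhosis hepatic side effect score taken from the DILIps (drug-induced liver injury prediction) training set; call rule not given here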;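 as to HepSE elevated liver function tests: hepatic side effect score for raised liver function tests, as recorded in the DILIps training set used for predicting drug-induced liver injury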; as to HepSE hepatic failure: call rule not given here;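 as to HepSE hepatomegaly: hepatic side effect score for hepatomegaly, taken from the training set of the DILIps drug-induced liver injury prediction system; call rule not given here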
Hepatotoxicity [2] = system: Hepatotoxicity; remark: listed apart in the source;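 as to HepSE bilirubinemia: bilirubinemia hepatic side effect score drawn from the DILIps training data, a prediction system for drug-induced liver injury; call rule not given here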;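 as to HepSE cholecystitis: Cholecystitis-related hepatic side effect score drawn from the DILIps (drug-induced liver injury prediction) training data set; call rule not given here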;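 as to HepSE cholelithiasis: hepatic side effect score for cholelithiasis, drawn from the DILIps training data for predicting drug-induced liver injury; call rule not given here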;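 as to HepSE cirrhosis: cirrhosis hepatic side effect score taken from the DILIps (drug-induced liver injury prediction) training set; call rule not given here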;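 as to HepSE elevated liver function tests: hepatic side effect score for raised liver function tests, as recorded in the DILIps training set used for predicting drug-induced liver injury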; as to HepSE hepatic failure: call rule not given here
Hepatotoxicity [3] = system: Hepatotoxicity; remark: listed apart in the source;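 as to HepSE bilirubinemia: bilirubinemia hepatic side effect score drawn from the DILIps training data, a prediction system for drug-induced liver injury; call rule not given here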;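 as to HepSE cholecystitis: Cholecystitis-related hepatic side effect score drawn from the DILIps (drug-induced liver injury prediction) training data set; call rule not given here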;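 as to HepSE cholelithiasis: hepatic side effect score for cholelithiasis, drawn from the DILIps training data for predicting drug-induced liver injury; call rule not given here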;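 as to HepSE cirrhosis: cirrhosis hepatic side effect score taken from the DILIps (drug-induced liver injury prediction) training set; call rule not given here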;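 as to HepSE elevated liver function tests: hepatic side effect score for raised liver function tests, as recorded in the DILIps training set used for predicting drug-induced liver injury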; as to HepSE hepatic failure: call rule not given here
Hepatotoxicity [4] = system: Hepatotoxicity; remark: listed apart in the source;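 as to HepSE bilirubinemia: bilirubinemia hepatic side effect score drawn from the DILIps training data, a prediction system for drug-induced liver injury; call rule not given here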;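 as to HepSE cholecystitis: Cholecystitis-related hepatic side effect score drawn from the DILIps (drug-induced liver injury prediction) training data set; call rule not given here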;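 as to HepSE cholelithiasis: hepatic side effect score for cholelithiasis, drawn from the DILIps training data for predicting drug-induced liver injury; call rule not given here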;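 as to HepSE cirrhosis: cirrhosis hepatic side effect score taken from the DILIps (drug-induced liver injury prediction) training set; call rule not given here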;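 as to HepSE elevated liver function tests: hepatic side effect score for raised liver function tests, as recorded in the DILIps training set used for predicting drug-induced liver injury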; as to HepSE hepatic failure: call rule not given here
Hepatotoxicity [5] = system: Hepatotoxicity; remark: listed apart in the source; as to HepSE hepatic failure: call rule not given here
Hepatotoxicity [6] = system: Hepatotoxicity; remark: listed apart in the source; as to HepSE hepatic failure: call rule not given here
Hepatotoxicity [7] = system: Hepatotoxicity; remark: listed apart in the source
Hepatotoxicity [8] = system: Hepatotoxicity; remark: listed apart in the source
Hepatotoxicity [9] = system: Hepatotoxicity; remark: listed apart in the source
Hepatotoxicity [10] = system: Hepatotoxicity; remark: listed apart in the source
Hepatotoxicity [11] = system: Hepatotoxicity; remark: listed apart in the source
Hepatotoxicity [12] = system: Hepatotoxicity; remark: listed apart in the source
Hepatotoxicity [13] = system: Hepatotoxicity; remark: listed apart in the source
Hepatotoxicity [14] = system: Hepatotoxicity; remark: listed apart in the source

| Molecule | HepSE_bilirubinemia (Hepatotoxicity [1]) | HepSE_cholecystitis (Hepatotoxicity [2]) | HepSE_cholelithiasis (Hepatotoxicity [3]) | HepSE_cirrhosis (Hepatotoxicity [4]) | HepSE_elevated liver function tests (Hepatotoxicity [5]) | HepSE_hepatic failure (Hepatotoxicity [6]) | HepSE_hepatic necrosis (Hepatotoxicity [7]) | HepSE_hepatitis (Hepatotoxicity [8]) | HepSE_hepatomegaly (Hepatotoxicity [9]) | HepSE_jaundice (Hepatotoxicity [10]) | HepSE_liver disease (Hepatotoxicity [11]) | HepSE_liver fatty (Hepatotoxicity [12]) | HepSE_liver function tests abnormal (Hepatotoxicity [13]) | HepSE_Combined Scores (Hepatotoxicity [14]) | also measured |
| --- | --- | --- | --- | --- | --- | --- | --- | --- | --- | --- | --- | --- | --- | --- | --- |
| NC(=O)NO [HYDROXYUREA] | 0 | 0 | 0 | 0 | 0 | 0 | 0 | 0 | 0 | 0 | 0 | 0 | 0 | 0 |  |
| CCCc1nc2c(C)cc(-c3nc4ccccc4n3C)cc2n1Cc1ccc(-c2ccccc2C(=O)O)cc1 | 0 | 0 | 0 | 0 | 0 | 0 | 0 | 0 | 0 | 0 | 1 | 0 | 0 | 1 |  |
| CC(C)N1CCN(c2ccc(OCC3COC(Cn4cncn4)(c4ccc(Cl)cc4Cl)O3)cc2)CC1 (configuration not stated) [TERCONAZOLE] | 0 | 0 | 0 | 0 | 0 | 0 | 0 | 0 | 0 | 0 | 0 | 0 | 0 | 0 |  |
| CNCCC(Oc1ccc(C(F)(F)F)cc1)c1ccccc1 (configuration not stated) [FLUOXETINE] | 0 | 1 | 1 | 0 | 0 | 1 | 0 | 1 | 1 | 1 | 0 | 1 | 1 | 8 |  |
| O=c1[nH]c2ccccc2n1CCCN1CCC(n2c(=O)[nH]c3cc(Cl)ccc32)CC1 [DOMPERIDONE] | 0 | 0 | 0 | 0 | 0 | 0 | 0 | 0 | 0 | 0 | 0 | 0 | 0 | 0 |  |
| CN1CCC(=C2c3ccccc3C=Cc3ccccc32)CC1 [CYPROHEPTADINE] | 0 | 0 | 0 | 0 | 0 | 1 | 0 | 1 | 0 | 1 | 0 | 0 | 0 | 3 |  |
| NC[C@@H]1O[C@H](O[C@H]2[C@@H](O)[C@H](O[C@@H]3[C@@H](O)[C@H](N)C[C@H](N)[C@H]3O[C@H]3O[C@H](CN)[C@@H](O)[C@H](O)[C@H]3N)O[C@@H]2CO)[C@H](N)[C@@H](O)[C@@H]1O [FRAMYCETIN] |  |  |  |  |  |  |  |  |  |  |  |  |  |  | HepSE_bilirubinemia (Hepatotoxicity [1]; Liver): 0; HepSE_cholecystitis (Hepatotoxicity [2]; Liver): 0; HepSE_cholelithiasis (Hepatotoxicity [3]; Liver): 0; HepSE_cirrhosis (Hepatotoxicity [4]; Liver): 0; HepSE_elevated liver function tests (Hepatotoxicity [5]; Liver): 0; HepSE_hepatic failure (Hepatotoxicity [6]; Liver): 0; HepSE_hepatic necrosis (Hepatotoxicity [7]; Liver): 0; HepSE_hepatitis (Hepatotoxicity [8]; Liver): 0; HepSE_hepatomegaly (Hepatotoxicity [9]; Liver): 0; HepSE_jaundice (Hepatotoxicity [10]; Liver): 0; HepSE_liver disease (Hepatotoxicity [11]; Liver): 0; HepSE_liver fatty (Hepatotoxicity [12]; Liver): 0; HepSE_liver function tests abnormal (Hepatotoxicity [13]; Liver): 0; HepSE_Combined Scores (Hepatotoxicity [14]; Liver): 0 |
| CN(C)/N=N/c1[nH]cnc1C(N)=O [DACARBAZINE] | 0 | 0 | 0 | 0 | 0 | 0 | 0 | 0 | 0 | 0 | 0 | 0 | 0 | 0 |  |
| GADOTERIDOL | 0 | 0 | 0 | 0 | 0 | 0 | 0 | 0 | 0 | 0 | 0 | 0 | 0 | 0 |  |
| NCCc1ccc(O)c(O)c1 [DOPAMINE] |  |  |  |  |  |  |  |  |  |  |  |  |  |  | HepSE_bilirubinemia (Hepatotoxicity [1]; Liver): 0; HepSE_cholecystitis (Hepatotoxicity [2]; Liver): 0; HepSE_cholelithiasis (Hepatotoxicity [3]; Liver): 0; HepSE_cirrhosis (Hepatotoxicity [4]; Liver): 0; HepSE_elevated liver function tests (Hepatotoxicity [5]; Liver): 0; HepSE_hepatic failure (Hepatotoxicity [6]; Liver): 0; HepSE_hepatic necrosis (Hepatotoxicity [7]; Liver): 0; HepSE_hepatitis (Hepatotoxicity [8]; Liver): 0; HepSE_hepatomegaly (Hepatotoxicity [9]; Liver): 0; HepSE_jaundice (Hepatotoxicity [10]; Liver): 0; HepSE_liver disease (Hepatotoxicity [11]; Liver): 0; HepSE_liver fatty (Hepatotoxicity [12]; Liver): 0; HepSE_liver function tests abnormal (Hepatotoxicity [13]; Liver): 0; HepSE_Combined Scores (Hepatotoxicity [14]; Liver): 0 |
| CCC(=O)[C@@]1(C)[C@H](C)C[C@H]2[C@@H]3CCC4=CC(=O)C=C[C@]4(C)[C@H]3[C@@H](O)C[C@@]21C [RIMEXOLONE] | 0 | 0 | 0 | 0 | 0 | 0 | 0 | 0 | 0 | 0 | 0 | 0 | 0 | 0 |  |
| Nc1ccn(C[C@@H](CO)OCP(=O)(O)O)c(=O)n1.O.O [CIDOFOVIR] | 0 | 0 | 0 | 0 | 0 | 0 | 1 | 1 | 1 | 1 | 0 | 0 | 0 | 4 |  |
| COc1ccc(C(CN(C)C)C2(O)CCCCC2)cc1 (configuration not stated) [VENLAFAXINE] | 1 | 1 | 1 | 1 | 0 | 0 | 0 | 1 | 0 | 1 | 0 | 1 | 0 | 7 |  |
| CN[C@@H]1CCc2[nH]c3ccc(C(N)=O)cc3c2C1 [FROVATRIPTAN] | 0 | 0 | 0 | 0 | 0 | 0 | 0 | 0 | 0 | 0 | 0 | 0 | 0 | 0 |  |
| COc1ccc(OC)c(C(O)CNC(=O)CN)c1 (configuration not stated) [MIDODRINE] | 0 | 0 | 0 | 0 | 0 | 0 | 0 | 0 | 0 | 0 | 0 | 0 | 0 | 0 |  |
| CN(C)c1cc(NC(=O)CNC(C)(C)C)c(O)c2c1C[C@H]1C[C@H]3[C@H](N(C)C)C(O)=C(C(N)=O)C(=O)[C@@]3(O)C(O)=C1C2=O [TIGECYCLINE] | 1 | 0 | 0 | 0 | 0 | 1 | 0 | 0 | 0 | 1 | 0 | 0 | 1 | 4 |  |
| COC(=O)C(c1ccccc1)C1CCCCN1 (configuration not stated) [METHYLPHENIDATE] | 0 | 0 | 0 | 0 | 0 | 0 | 0 | 0 | 0 | 0 | 0 | 0 | 1 | 1 |  |
| Oc1ccc(C2CNCCc3c2cc(O)c(O)c3Cl)cc1 (configuration not stated) [FENOLDOPAM] | 0 | 0 | 0 | 0 | 0 | 0 | 0 | 0 | 0 | 0 | 0 | 0 | 0 | 0 |  |
